We go through five compounds from US11045482B2, “Use of glucocorticoid receptor modulators in the treatment of catecholamine-secreting tumors” (Corcept Therapeutics, Inc., priority 2017, dated 2021).

One data set has as its system PNMT mRNA. The note with it: intact rats; cited from earlier work.
Data set [1] concerns PNMT mRNA and enzyme expression. Conditions: rats, depletion of corticosteroids by hypophysectomy; cited from earlier work.
The test system of data set [2] is pheochromocytoma crisis (PC). Conditions: cited from earlier work.
Data set [3] concerns metastatic pheochromocytoma associated with ectopic ACTH secretion. The experiment in a line: Case of a person with metastatic pheochromocytoma and Cushing syndrome given mifepristone (Example 1). It is filed as in vivo, human. The note with it: despite high dose of atenolol and phenoxybenzamine, before mifepristone. On the procedure: A person with metastatic pheochromocytoma associated with ectopic ACTH secretion unresponsive to conventional chemotherapy with CVD (cyclophosphamide, vincristine and dacarbazine) and Sunitinib (tyrosine kinase inhibitors) was enrolled in a phase 2 study with a somatostatin analog. […] At the same time the diagnosis of Cushing syndrome was made and 300 mg of Mifepristone was added to their regimen and the dose was further increased to 600 mg daily two weeks later. […] The plasma epinephrine level after 2 weeks of therapy with mifepristone was decreased by 50%, and the plasma metanephrine level was decreased by 25% after 9 weeks of therapy.

Take `CC#CC1(O)CC[C@H]2[C@@H]3C=C(C)C4=CC(=O)C=C[C@]4(C)[C@H]3C(O)C[C@@]21C` (stereo partly drawn) [RU28362, 11,17-dihydroxy-6-methyl-17-(1-propynyl)androsta-1,4,6-triene-3-one]: in the data set with PNMT mRNA, the “PNMT mRNA levels” value is reported as “rise markedly”.

“adrenocorticotropin: stimulates endogenous glucocorticoid production (SYSMEHFRWGKPVGKKRRPVKVYPNGAEDESAEAFPLEF; Corticotropin; UniProt P01189 138-176, looked up)”: the “decrease of PNMT mRNA and enzyme expression after hypophysectomy” value in data set [1] was “reversed”.

As to `C[C@@H]1C[C@H]2[C@@H]3CCC4=CC(=O)C=C[C@]4(C)[C@@]3(F)[C@@H](O)C[C@]2(C)[C@@]1(O)C(=O)CO` [dexamethasone], in data set [2] (1 mg given as a DST in patients with pheochromocytoma), the pheochromocytoma crisis cases result is listed as “no cases have been reported”. In data set [2] (larger doses, as low as 2 mg), the pheochromocytoma crisis result was “may trigger a PC”.

For `CC(COc1ccccc1)N(CCCl)Cc1ccccc1` (stereo not drawn) [phenoxybenzamine], the “catecholamine excess symptoms (palpitations, tremors and panic attacks)” value in data set [3] is “continued to experience significant catecholamine excess symptoms”.

As to `CC(C)NCC(O)COc1ccc(CC(N)=O)cc1` (stereo not drawn) [atenolol], the “catecholamine excess symptoms (palpitations, tremors and panic attacks)” value in data set [3] is “continued to experience significant catecholamine excess symptoms”.
